From US6638529B2, “Amide-based cationic lipids” (Genta Incorporated, priority 1995, dated 2003)

Columns and labels:
COS-7 cells [1] = assay: Transient transfection of CAT plasmid pG1035 with cationic lipids, CAT activity in lysate; format: cell-based, African green monkey; conditions: for Mean (transient transfection efficiency; CAT activity normalized to total protein): CAT plasmid pG1035 2 μg/mL, lipid 18 μg/mL (9 to 1 lipid to DNA), triplicate; for REL (transient transfection efficiency relative to best lipid in the cell line): CAT plasmid pG1035, 9 to 1 lipid to DNA
Description: (§1) Cell lines were plated at 1.5×10^5 cells/well in a 12 well plate format on the day before tranfection. […] This small quantity of ethanol was confirmed to have no adverse effect on any of the cell lines. […] Cell lysates were prepared by rinsing twice in PBS and then were treated with 0.5 mL of 1× Reporter Lysis Buffer (Promega, Madison, Wis.). The lysed cells were pipetted into 1.5 mL tubes and frozen in CO2/EtOH once and thawed. The crude lysate was then clarified by microcentrifugation at 14,000 rpm for 10 minutes to pellet cell debris. The clear supernatant was recovered and assayed directly or stored at -20° C. for assay later. The cell lysates were then assayed for CAT activity and the total protein concentration was determined as described below in Example 7. The CAT activity was normalized to total protein and plotted as shown. This assay was performed generally as follows. First, the following reaction mixture was prepared for each sample: […] Louis, Mo.), 4 mL ^14C-chloramphenicol, 50 nCi/mL (Dupont, Boston, Mass.), and 5 mL mg/mL n-butyryl coenzyme A (Pharmacia, Piscataway, N.J.). […] The original stock CAT was at 7000 Units/mL. […] Approximately […] of reaction mixture was then added to each sample tube, which was then typically incubated for approximately 1 hour in a 37° C. oven. The reaction was terminated by adding […] pristane:mixed xylenes (2:1) (Sigma, St. Louis, Mo.) to each tube. The tubes were then vortexed for 2 minutes and spun for 5 minutes. Approximately […] of the upper phase was transferred to a scintillation vial with 5 mL Scintiverse (Fisher, Pittsburgh, Pa.). The sample was then counted in a scintillation counter (Packard). The plasmid pG1035 was used for transient transfections of COS-7 (ATCC # CRL-1651), SNB-19, C8161 and RD (ATCC # CCL-136) cells. pG1035 consists of a modified CAT (choramphenicol acetyl transferase) gene (named […]) inserted into the eukaryotic vector pRc/CMV (Invitrogen, San Diego, Calif.). […] created by inserting an artificial intron into the wild type CAT gene sequence in a plasmid named pG1036 (also based on pRc/CMV) using the polymerase chain reaction. […] Concentration curve standards were prepared using 6 μL of […] BSA stock solutions and 300 mL of the Coomassie reagent. The assay samples were allowed to sit for approximately 30 minutes before reading the optical absorbance at 570 nm in a microplate reader (Molecular Probes). The cells were assayed for CAT protein as described above.

C8161 cells [2] = assay: FITC-oligonucleotide uptake assay (nuclear fluorescence score); format: cell-based, human; design: key: 0: No nuclear fluorescence; 1: up to 20% fluorescent nuclei; 2: up to 40% fluorescent nuclei; 3: up to 60% fluorescent nuclei; 4: up to 80% fluorescent nuclei; 5: up to 100% fluorescent nuclei; conditions: lipid:oligomer 9:1 or 6:1 by weight, 4-6 h
COS-7 cells [3] = assay: as above; format: cell-based, African green monkey; design: key: 0: No nuclear fluorescence; 1: up to 20% fluorescent nuclei; 2: up to 40% fluorescent nuclei; 3: up to 60% fluorescent nuclei; 4: up to 80% fluorescent nuclei; 5: up to 100% fluorescent nuclei; conditions: COS7, lipid:oligomer 9:1 or 6:1 by weight, 4-6 h
SNB-19 cells [4] = assay: as above; format: cell-based, human; design: key: 0: No nuclear fluorescence; 1: up to 20% fluorescent nuclei; 2: up to 40% fluorescent nuclei; 3: up to 60% fluorescent nuclei; 4: up to 80% fluorescent nuclei; 5: up to 100% fluorescent nuclei; conditions: SNB19, lipid:oligomer 9:1 or 6:1 by weight, 4-6 h
RD cells [5] = assay: as above; format: cell-based, human; design: key: 0: No nuclear fluorescence; 1: up to 20% fluorescent nuclei; 2: up to 40% fluorescent nuclei; 3: up to 60% fluorescent nuclei; 4: up to 80% fluorescent nuclei; 5: up to 100% fluorescent nuclei; conditions: lipid:oligomer 9:1 or 6:1 by weight, 4-6 h
SNB-19 cells [6] = assay: Transient transfection of CAT plasmid pG1035 with cationic lipids, CAT activity in lysate; format: cell-based, human; conditions: for Mean (transient transfection efficiency; CAT activity normalized to total protein): CAT plasmid pG1035 2 μg/mL, lipid 18 μg/mL (9 to 1 lipid to DNA), triplicate; for REL (transient transfection efficiency relative to best lipid in the cell line): CAT plasmid pG1035, 9 to 1 lipid to DNA
Description: as §1

C8161 cells [7] = assay: as above; format: cell-based, human; conditions: for Mean (transient transfection efficiency; CAT activity normalized to total protein): CAT plasmid pG1035 2 μg/mL, lipid 18 μg/mL (9 to 1 lipid to DNA), triplicate; for REL (transient transfection efficiency relative to best lipid in the cell line): CAT plasmid pG1035, 9 to 1 lipid to DNA
Description: as §1

RD cells [8] = assay: as above; format: cell-based, human; conditions: for Mean (transient transfection efficiency; CAT activity normalized to total protein): CAT plasmid pG1035 2 μg/mL, lipid 18 μg/mL (9 to 1 lipid to DNA), triplicate; for REL (transient transfection efficiency relative to best lipid in the cell line): CAT plasmid pG1035, 9 to 1 lipid to DNA
Description: as §1

[9] = FITC oligomer 3498-PS (phosphorothioate) 0.25 micromolar
[10] = FITC oligomer 3498 Chimera 0.25 micromolar
[11] = FITC oligomer 3793-2 alternating (methylphosphonate/diester, 2'-O-methyl) 0.25 micromolar

Structure (SMILES) | Mean (transient transfection efficiency; CAT activity normalized to total protein) (COS-7 cells [1]) | REL (transient transfection efficiency relative to best lipid in the cell line) (COS-7 cells [1]) | Nuclear delivery of oligonucleotide (uptake score) (C8161 cells [2]; [9]) | Nuclear delivery of oligonucleotide (uptake score) (C8161 cells [2]; [10]) | Nuclear delivery of oligonucleotide (uptake score) (C8161 cells [2]; [11]) | Nuclear delivery of oligonucleotide (uptake score) (COS-7 cells [3]; [9]) | Nuclear delivery of oligonucleotide (uptake score) (COS-7 cells [3]; [10]) | Nuclear delivery of oligonucleotide (uptake score) (COS-7 cells [3]; [11]) | Nuclear delivery of oligonucleotide (uptake score) (SNB-19 cells [4]; [9]) | Nuclear delivery of oligonucleotide (uptake score) (SNB-19 cells [4]; [10]) | Nuclear delivery of oligonucleotide (uptake score) (SNB-19 cells [4]; [11]) | Nuclear delivery of oligonucleotide (uptake score) (RD cells [5]; [9]) | Nuclear delivery of oligonucleotide (uptake score) (RD cells [5]; [10]) | Nuclear delivery of oligonucleotide (uptake score) (RD cells [5]; [11]) | Mean (transient transfection efficiency; CAT activity normalized to total protein) (SNB-19 cells [6]) | REL (transient transfection efficiency relative to best lipid in the cell line) (SNB-19 cells [6]) | Mean (transient transfection efficiency; CAT activity normalized to total protein) (C8161 cells [7]) | REL (transient transfection efficiency relative to best lipid in the cell line) (C8161 cells [7]) | Mean (transient transfection efficiency; CAT activity normalized to total protein) (RD cells [8]) | REL (transient transfection efficiency relative to best lipid in the cell line) (RD cells [8])
CCCCCCCCCCCCCCCCCC(CCCCCCCCCCCCCCCCC)NC(=O)CNC(=O)CNC(=O)[C@H](CCCNCCCN)NCCCN.O=C(O)C(F)(F)F.O=C(O)C(F)(F)F.O=C(O)C(F)(F)F.O=C(O)C(F)(F)F [Compound 1-10, N^2,N^5-Bis(3-aminopropyl)-L-ornithylglycyl-N-(1-heptadecyloctadecyl)glycinamide, Tetrahydrotrifluoroacetate] | 148040 | 0.87 | 5 (up to 100% fluorescent nuclei) | 3 (up to 60% fluorescent nuclei) | 0 | 4 (up to 80% fluorescent nuclei) | 3 (up to 60% fluorescent nuclei) | 0 | 4 (up to 80% fluorescent nuclei) | 4 (up to 80% fluorescent nuclei) | 0 | 5 (up to 100% fluorescent nuclei) | 4 (up to 80% fluorescent nuclei) | 0 | 166179 | 0.88 | 159578 | 0.8 | 124232 | 0.7
CCCCCCCCCCCCCCCCCCN(CCCCCCCCCCCCCCCCCC)C(=O)CC[C@H](NC(=O)[C@H](CCCNCCCN)NCCCN)C(=O)O.Cl.Cl.Cl.Cl [Compound 2-5, N^2-[N^2,N^5-Bis(3-aminopropyl)-L-ornithyl]-N,N-dioctadecyl-L-glutamine, tetrahydrochloride] | 55598 | 0.33 | 3 (up to 60% fluorescent nuclei) | 4 (up to 80% fluorescent nuclei) | 3 (up to 60% fluorescent nuclei) | 2 (up to 40% fluorescent nuclei) | 2 (up to 40% fluorescent nuclei) | 1 (up to 20% fluorescent nuclei) | 3 (up to 60% fluorescent nuclei) | 3 (up to 60% fluorescent nuclei) | 3 (up to 60% fluorescent nuclei) | 3 (up to 60% fluorescent nuclei) | 4 (up to 80% fluorescent nuclei) | 4 (up to 80% fluorescent nuclei) | 103280 | 0.55 | 137710 | 0.69 | 73921 | 0.41
